As usually defined, the inhibition is the drop in the measured response relative to a control, in per cent. Higher therefore signals strong suppression. By % Inhibition is commonly meant the share of the control response that was lost under treatment.

Structures can show the parent of a compound that is named as a salt.

T1 sequence (A5HKP3 whole entry): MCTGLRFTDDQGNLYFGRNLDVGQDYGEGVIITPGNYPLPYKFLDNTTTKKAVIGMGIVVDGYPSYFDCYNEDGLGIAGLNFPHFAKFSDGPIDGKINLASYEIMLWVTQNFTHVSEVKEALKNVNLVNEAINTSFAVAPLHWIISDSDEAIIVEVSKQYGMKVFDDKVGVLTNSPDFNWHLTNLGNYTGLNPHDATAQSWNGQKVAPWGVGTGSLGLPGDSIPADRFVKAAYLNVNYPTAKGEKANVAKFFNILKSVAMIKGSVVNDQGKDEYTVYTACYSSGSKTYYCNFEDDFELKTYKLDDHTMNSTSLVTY

The first assay concerns the target T1, L. acidophilus BSH (rBSH; LaciP) (Lactobacillus acidophilus, UniProt A5HKP3).
T1 construct: full-length BSH (316 aa), C-terminal His tag, pET-21b(+), E. coli BL21(DE3), Ni-NTA; about 32 kDa on SDS-PAGE
The experiment in a line: two-step ninhydrin BSH assay (glycine release from glycocholic acid). Format: biochemical.
Settings: not given
An excerpt: two-step ninhydrin BSH assay (glycine release from glycocholic acid) on L. acidophilus BSH (rBSH; LaciP)
On to `Cc1cc2nc3c(=O)[nH]c(=O)nc-3n(C[C@H](O)[C@H](O)[C@H](O)CO)c2cc1C` [Riboflavin], for which the inhibition at 500 µM worked out at 96.5%.

Regarding `CCC[C@@H]1C[C@@H](C(=O)N[C@@H]([C@H]2O[C@H](SC)[C@H](O)[C@@H](O)[C@H]2O)[C@@H](C)O)N(C)C1` [Lincomycin], the inhibition at 2500 µM is 26.8%.

The compound `C[C@H]1c2cccc(O)c2C(O)=C2C(=O)[C@]3(O)C(O)=C(C(N)=O)C(=O)[C@@H](N(C)C)[C@@H]3[C@@H](O)[C@@H]21` [Doxycycline Hydrochloride] returned an inhibition at 2500 µM of 98.3%.

Compound `CC1=CC(=O)c2ccccc2C1=O` [Menadione] displayed an inhibition at 2500 µM of 97.9%.

The compound `O=C(O[C@@H]1Cc2c(O)cc(O)cc2O[C@@H]1c1ccc(O)c(O)c1)c1cc(O)c(O)c(O)c1` [Epicatechin monogallate] displayed an inhibition at 2500 µM of 52.8%.

As to `CN(C)[C@@H]1C(O)=C(C(N)=O)C(=O)[C@@]2(O)C(O)=C3C(=O)c4c(O)ccc(Cl)c4[C@@H](O)[C@H]3C[C@@H]12` [Demeclocycline Hydrochloride], 2500 µM produced 99.6% inhibition.

`C=C1c2cccc(O)c2C(=O)C2=C(O)[C@]3(O)C(=O)C(C(N)=O)=C(O)[C@@H](N(C)C)[C@@H]3[C@@H](O)[C@H]12` [Methacycline Hydrochloride] showed an inhibition at 2500 µM of 99.2%.

Regarding `CN(C)[C@@H]1C(=O)C(C(N)=O)=C(O)[C@@]2(O)C(=O)C3=C(O)c4c(O)cccc4[C@@](C)(O)[C@H]3[C@H](O)[C@@H]12` [Oxytetracycline], the inhibition at 2500 µM turned out to be 99.6%.

In turn, `O=c1c(O)c(-c2ccc(O)c(O)c2)oc2c(O)c(O)cc(O)c12` [Gossypetin] showed an inhibition at 2500 µM of 96.1%.

`O=c1c(O)cccc2cc(O)c(O)c(O)c12` [Purpurogallin] returned an inhibition at 2500 µM of 36.1%.

Compound `O=C(/C=C/c1ccc(O)c(O)c1)OCCc1ccccc1` [Caffeic Acid Phenethyl Ester] registered an inhibition at 2500 µM of 71.8%.

The same assay, now with this note: 2500 µM; 5 mM glycocholic acid, about 10 mM DTT, 0.1 M sodium phosphate pH 6.0, 37 °C, 30 min preincubation.
As to `O=[N+]([O-])c1cc([As](=O)(O)O)ccc1O` [Roxarsone], the “% Inhibition” value is recorded as 48.6%.

(Values after article PMC4282894, “Effect of Bile Salt Hydrolase Inhibitors on a Bile Salt Hydrolase from Lactobacillus acidophilus” (Pathogens, 2014).)
